# Assay results as given in patent publication US20090030024A1, “THIAZOLES AS FUNGICIDES” (priority 2005, published 2009).
# Read-outs that look alike come from different tables or passages of the source.
# Experiments:
# Fusarium graminearum = experiment: whole plant or invertebrate; assay type: in vivo; settings: in Hordeum vulgare, 96 h, read-out: efficacy
# [1] = logP determination by retention times (calibration with alkan-2-ones)
# Phytophthora infestans = experiment: whole plant or invertebrate; assay type: in vivo; settings: in Solanum lycopersicum, 168 h, read-out: efficacy
# [2] = logP, * HPLC reversed-phase C18, 40° C., mobile phase 0.1% aqueous formic acid and acetonitrile, linear gradient 10% to 95% acetonitrile
Compound,pest or weed control at 1000 ppm (Fusarium graminearum),chromatographic logP [1],pest or weed control at 500 ppm (Phytophthora infestans),"chromatographic logP [1, 2]"
"CCc1nc(C)c(-c2ccnc(Nc3cccc(C(C)=O)c3)n2)s1 [Example 9, 1-(3-{[4-(2-ethyl-4-methyl-1,3-thiazol-5-yl)pyrimidin-2-yl]amino}phenyl)ethanone]",≥ 70%,2.7,–,–
"COc1cc(Nc2nccc(-c3sc(C4CC4)nc3C)n2)cc(OC)c1OC [Example 222, 4-(2-cyclopropyl-4-methyl-1,3-thiazol-5-yl)-N-(3,4,5-trimethoxyphenyl)pyrimidine-2-amine]",≥ 70%,2.77,–,–
"CCc1nc(C)c(-c2ccnc(Nc3cc(OC)c(OC)c(OC)c3)n2)s1 [Example 235, 4-(2-ethyl-4-methyl-1,3-thiazol-5-yl)-N-(3,4,5-trimethoxyphenyl)pyrimidine-2-amine]",≥ 70%,2.61,≥ 70%,–
"CCc1nc(C)c(-c2ccnc(Nc3ccc(F)cc3)n2)s1 [Example 239, 4-(2-ethyl-4-methyl-1,3-thiazol-5-yl)-N-(4-fluorophenyl)pyrimidine-2-amine]",–,3.1,≥ 70%,–
"CCc1nc(C)c(-c2ccnc(Nc3ccccc3)n2)s1 [Example 243, 4-(2-ethyl-4-methyl-1,3-thiazol-5-yl)-N-phenylpyrimidine-2-amine]",≥ 70%,3.07,≥ 70%,–
"Cc1nc(C)c(-c2ccnc(Nc3ccc(O)cc3)n2)s1 [Example 321, 4-{[4-(2,4-dimethyl-1,3-thiazol-5-yl)pyrimidin-2-yl]amino}phenol]",–,1.62,≥ 70%,–
"Cc1nc(C2CC2)sc1-c1ccnc(Nc2ccc(O)cc2)n1 [Example 324, 4-{[4-(2-cyclopropyl-4-methyl-1,3-thiazol-5-yl)pyrimidin-2-yl]amino}phenol]",–,2.01,≥ 70%,–
"CCc1nc(C)c(-c2ccnc(Nc3ccc(O)cc3)n2)s1 [Example 327, 4-{[4-(2-ethyl-4-methyl-1,3-thiazol-5-yl)pyrimidin-2-yl]amino}phenol]",–,1.88,≥ 70%,–
"Cc1nc(C(C)C)sc1-c1ccnc(Nc2ccc(O)cc2)n1 [Example 329, 4-{[4-(2-isopropyl-4-methyl-1,3-thiazol-5-yl)pyrimidin-2-yl]amino}phenol]",–,2.18,≥ 70%,–
"CCOC(=O)c1cccc(Nc2nccc(-c3sc(C(C)C)nc3C)n2)c1 [Example 375, ethyl-3-{[4-(2-isopropyl-4-methyl-1,3-thiazol-5-yl)pyrimidin-2-yl]amino}benzoate]",≥ 70%,3.83,–,–
"CCc1nc(C)c(-c2ccnc(Nc3ccc(NC(C)=O)cc3)n2)s1 [Example 460, N-(4-{[4-(2-ethyl-4-methyl-1,3-thiazol-5-yl)pyrimidin-2-yl]amino}phenyl)acetamide]",–,–,≥ 70%,1.88
"Cc1nc(N)sc1-c1ccnc(Nc2ccc(CNC(=O)OC(C)(C)C)cc2)n1 [Example 628, tert-butyl-(4-{[4-(2-amino-4-methyl-1,3-thiazol-5-yl)pyrimidin-2-yl]amino}benzyl)carbamate]",–,–,≥ 70%,1.86
"Cc1nc(C2CC2)sc1-c1ccnc(Nc2ccc(CNC(=O)OC(C)(C)C)cc2)n1 [Example 630, tert-butyl-(4-{[4-(2-cyclopropyl-4-methyl-1,3-thiazol-5-yl)pyrimidin-2-yl]amino}benzyl)carbamate]",–,–,≥ 70%,3.46
